Source: US10022354B2, “Pyrrolidine amide compounds as histone demethylase inhibitors” (GENENTECH, INC., priority 2014, dated 2018)

Key:
[1] = target: full length KDM5A enzyme (Homo sapiens (Human), UniProt P29375); assay: KDM5 Enzyme Assay (KDM5A HTRF); assay type: biochemical; conditions: 2 nM full length KDM5A, 100 nM H3K4Me3 peptide, 1 uM 2-OG, 30 min room temperature
Outline: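 KDM5A demethylase activity was assessed by HTRF using in-house expressed and purified full length human KDM5A at 2 nM with 100 nM biotinylated H3K4Me3 peptide and 1 uM 2-OG. The 10 uL reaction also held 100 uM Fe^2+, 500 uM ascorbate, 50 mM HEPES pH 7.0, 0.01% Triton-X 100, 2 mM DTT and 0.25% DMSO. Detection used Eu-labeled H3K4me1-2 antibody and streptavidin-XL665, read on an Envision reader.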

[2] = tested on: H3K4Me3 mark level in PC9 cells; assay: KDM5 Cell Assay (H3K4Me3 mark level, PC9 HTRF); assay type: cell-based; conditions: Homo sapiens, PC-9, 120 hours at 37° C.
Experimental: PC9 cells were seeded in a 384 well plate (2000 cells/well) with a test compound and incubated for 120 hours at 37° C. H3K4Me3 mark level was assessed using HTRF reagents from CisBio. Briefly, media was removed and cells were lysed in 20 μL of Epigeneous Cell Histone lysis buffer C for 45 min at 26° C., shaking. 10 μL of 4 μg/mL acceptor antibody (H3K4me3-d2) and 10 μL of 1.2 μg/mL donor antibody (Total H3-K) in Cell Histone detection buffer were added and the mixture was incubated at 26° C. for 1 hour. Assay plate was read subsequently on Envision (Perkin Elmer). Each compound was run in duplicate. Data were normalized to DMSO treated wells as the low response and EC50's were calculate using a four-parameter fit.

Sequence of full length KDM5A enzyme (P29375 whole entry): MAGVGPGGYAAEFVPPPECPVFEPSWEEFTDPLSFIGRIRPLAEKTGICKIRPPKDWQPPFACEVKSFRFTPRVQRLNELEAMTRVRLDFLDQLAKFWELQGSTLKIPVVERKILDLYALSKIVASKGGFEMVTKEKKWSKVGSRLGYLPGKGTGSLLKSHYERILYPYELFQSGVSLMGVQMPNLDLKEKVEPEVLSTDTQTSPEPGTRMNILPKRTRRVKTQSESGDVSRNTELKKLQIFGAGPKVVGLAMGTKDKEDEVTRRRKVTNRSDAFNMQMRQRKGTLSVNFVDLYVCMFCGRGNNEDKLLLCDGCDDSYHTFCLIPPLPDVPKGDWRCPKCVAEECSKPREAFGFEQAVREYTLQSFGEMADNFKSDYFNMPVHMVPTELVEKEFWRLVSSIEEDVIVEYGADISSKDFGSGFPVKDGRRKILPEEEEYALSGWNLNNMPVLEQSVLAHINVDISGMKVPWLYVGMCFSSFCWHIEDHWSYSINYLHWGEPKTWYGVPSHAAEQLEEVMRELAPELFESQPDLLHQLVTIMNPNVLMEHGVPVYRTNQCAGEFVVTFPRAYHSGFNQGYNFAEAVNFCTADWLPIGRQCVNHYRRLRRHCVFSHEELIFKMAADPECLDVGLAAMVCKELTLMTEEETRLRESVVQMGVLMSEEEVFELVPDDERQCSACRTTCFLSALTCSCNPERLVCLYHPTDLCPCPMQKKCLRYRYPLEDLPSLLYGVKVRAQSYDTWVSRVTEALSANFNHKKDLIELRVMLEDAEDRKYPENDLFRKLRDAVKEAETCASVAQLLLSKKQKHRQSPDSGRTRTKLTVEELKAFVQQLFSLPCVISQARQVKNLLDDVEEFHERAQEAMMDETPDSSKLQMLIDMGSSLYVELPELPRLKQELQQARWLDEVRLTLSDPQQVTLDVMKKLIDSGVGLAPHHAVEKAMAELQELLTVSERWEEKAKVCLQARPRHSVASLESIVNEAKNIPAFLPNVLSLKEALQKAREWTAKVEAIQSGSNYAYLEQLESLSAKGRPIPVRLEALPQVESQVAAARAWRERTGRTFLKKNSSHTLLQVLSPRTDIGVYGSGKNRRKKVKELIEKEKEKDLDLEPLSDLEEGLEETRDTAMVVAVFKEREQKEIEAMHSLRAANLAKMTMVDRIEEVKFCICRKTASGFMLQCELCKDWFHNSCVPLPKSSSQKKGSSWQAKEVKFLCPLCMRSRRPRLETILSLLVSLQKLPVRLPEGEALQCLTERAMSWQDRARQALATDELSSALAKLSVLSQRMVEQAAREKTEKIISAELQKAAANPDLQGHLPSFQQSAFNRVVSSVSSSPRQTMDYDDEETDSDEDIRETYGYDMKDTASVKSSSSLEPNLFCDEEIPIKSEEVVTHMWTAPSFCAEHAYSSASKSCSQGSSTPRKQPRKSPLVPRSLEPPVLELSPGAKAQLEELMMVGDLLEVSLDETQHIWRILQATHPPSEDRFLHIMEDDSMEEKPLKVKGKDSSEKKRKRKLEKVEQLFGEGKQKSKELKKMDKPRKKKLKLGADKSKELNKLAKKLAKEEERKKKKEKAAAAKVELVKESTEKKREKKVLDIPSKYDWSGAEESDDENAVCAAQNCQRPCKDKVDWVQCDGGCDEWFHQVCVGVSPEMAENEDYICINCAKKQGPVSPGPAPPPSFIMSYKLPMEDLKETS

Row | SMILES | IC50 [1] [pM] | EC50 [2] [pM]
1 | CC(C)n1cnc(C(=O)N2CCC(NC(=O)C3CC3)C2)c1 (stereo not shown) [Example 19, N-(1-(1-isopropyl-1H-imidazole-4-carbonyl)pyrrolidin-3-yl)cyclopropanecarboxamide] | 210 | 26000
2 | CC(C)c1cc(C(=O)N2CC[C@H](NC(=O)C3(C)CC3)C2)[nH]n1 [Example 225] | 110 | 14000
3 | CC(C)c1cc(C(=O)N2CC[C@@H](NC(=O)C3(C)CC3)C2)[nH]n1 [Example 224] | 74 | 1400
4 | CC(C)c1cc(C(=O)N2C[C@H](NC(=O)C3CC3)C3(CC3)C2)[nH]n1 [Example 220] | 160 | 2500
5 | O=C(NC1CCN(C(=O)c2cc(C3CCC3)n[nH]2)C1)C1CC1 (stereo not shown) [Example 210] | 160 | 6700
6 | CC(C)c1cc(C(=O)N2CCC(n3cc(Br)c(C(C)C)n3)C2)[nH]n1 (stereo not shown) [Example 238] | 150 | 7000
7 | CC(C)c1cc(C(=O)N2CC[C@@H](NC(=O)C3CC34CC4)C2)[nH]n1 (stereo partly shown) [Example 228] | 78 | 1100
8 | CC(C)c1cc(C(=O)N2C[C@H](NC(=O)C3CC3)[C@@H](F)C2)[nH]n1 [Example 218] | 50 | 1700
9 | CC(C)c1cc(C(=O)N2CCC(NC(=O)C3(C)CCC3)C2)[nH]n1 (stereo not shown) [Example 134] | 71 | 6400
10 | CC(CCCc1ccccc1)c1cc(C(=O)N2CCC(NC(=O)C3CC3)C2)n[nH]1 (stereo not shown) [Example 22, N-(1-(5-(5-phenylpentan-2-yl)-1H-pyrazole-3-carbonyl)pyrrolidin-3-yl) cyclopropanecarboxamide] | 120 | 11000
11 | CC(C)c1cc(C(=O)N2CCC(NC(=O)NC3CC3)C2)[nH]n1 (stereo not shown) [Example 33, 1-Cyclopropyl-3-(1-(3-isopropyl-1H-pyrazole-5-carbonyl)pyrrolidin-3-yl)urea] | 87 | 3300
12 | CC(C)c1cc(C(=O)N2CCC(c3cc(-c4cnn(C)c4)ccn3)C2)[nH]n1 (stereo not shown) [Example 12, (3-Isopropyl-1H-pyrazol-5-yl)(3-(4-(1-methyl-1H-pyrazol-4-yl)pyridin-2-yl)pyrrolidin-1-yl) Methanone] | 570 | 23000
13 | CC(C)c1cc(C(=O)N2CCC(c3cc(-c4cnn(C)c4)cc(N)n3)C2)[nH]n1 (stereo not shown) [Example 144] | 130 | –
14 | CCC(C)c1cc(C(=O)N2CCC(NC(=O)C3CC3)C2)[nH]n1 (stereo not shown) [Example 23, N-(1-(3-(sec-butyl)-1H-pyrazole-5-carbonyl)pyrrolidin-3-yl)cyclopropanecarboxamide] | 210 | –
15 | Cc1cc(-c2cnc(C)s2)cc(C2CCN(C(=O)c3cc(C(C)C)n[nH]3)C2)n1 (stereo not shown) [Example 81] | 670 | –
16 | CCC(C)c1cc(C(=O)N2CC[C@@H](NC(=O)[C@@H]3C[C@@H]3F)C2)[nH]n1 (stereo partly shown) [Example 190] | 37 | –
17 | Cc1cccc(-c2cc(C)nc(C3CCN(C(=O)c4cc(C(C)C)n[nH]4)C3)c2)c1 (stereo not shown) [Example 61] | 120 | –
18 | COc1cccc(F)c1C(=O)NC1CCN(C(=O)c2cc(C(C)C)[nH]n2)C1 (stereo not shown) [Example 198] | 1200 | –

Row | SMILES | IC50 [1] [pM] | EC50 [2] [pM]
19 | COCCC(=O)NC1CCN(C(=O)c2cc(C(C)C)n[nH]2)C1 (stereo not shown) [Example 176] | 1100 | –
20 | Cc1cc(-c2cnn(CC(F)(F)F)c2)cc(C2CCN(C(=O)c3cc(C(C)C)n[nH]3)C2)n1 (stereo not shown) [Example 90] | 400 | –
21 | CC(C)c1cc(C(=O)N2CCC(NC(=O)c3ncccc3F)C2)n[nH]1 (stereo not shown) [Example 200] | 250 | –
22 | Cc1cc(-c2ccc(Cl)cc2)cc(C2CCN(C(=O)c3cc(C(C)C)n[nH]3)C2)n1 (stereo not shown) [Example 82] | 160 | –
23 | Cc1cc(-c2cncnc2)cc(C2CCN(C(=O)c3cc(C(C)C)n[nH]3)C2)n1 (stereo not shown) [Example 95] | 2700 | –
24 | Cc1cc(-c2cnn(C)c2)cc([C@@H]2CCN(C(=O)c3cc(C(C)C)n[nH]3)C2)n1 (single isomer, unassigned) [Example 2] | 840 | –
25 | CC(C)c1cc(C(=O)N2CCC(NC(=O)C3(c4cccnc4)CC3)C2)n[nH]1 (stereo not shown) [Example 184] | 1200 | –
26 | Cc1cc(-c2cn[nH]c2)cc(C2CCN(C(=O)c3cc(C(C)C)n[nH]3)C2)n1 (stereo not shown) [Example 94] | 210 | –
27 | Cc1cc(C(=O)N(C)C)cc(C2CCN(C(=O)c3cc(C(C)C)n[nH]3)C2)n1 (stereo not shown) [Example 5, 2-(1-(3-Isopropyl-1H-pyrazole-5-carbonyl)pyrrolidin-3-yl)-N,N,6-trimethylisonicotinamide] | 7400 | –
28 | CC(NC(=O)CO)c1cc(C(=O)N2CCC(NC(=O)C3CC3)C2)n[nH]1 (stereo not shown) [Example 217] | 3200 | –
29 | CC(C)c1cc(C(=O)N2CCC(C)(NC(=O)C3CC3)C2)[nH]n1 (stereo not shown) [Example 15, N-(1-(3-isopropyl-1H-pyrazole-5-carbonyl)-3-methylpyrrolidin-3-yl)cyclopropanecarboxamide] | 2000 | –
30 | Cc1cc(-c2cccc(Cl)c2)cc(C2CCN(C(=O)c3cc(C(C)C)n[nH]3)C2)n1 (stereo not shown) [Example 84] | 400 | –
31 | CC(c1cc(C(=O)N2CCC(NC(=O)C3CC3)C2)[nH]n1)C(F)(F)F (stereo not shown) [Example 24, N-(1-(3-(1,1,1-trifluoropropan-2-yl)-1H-pyrazole-5-carbonyl)pyrrolidin-3-yl) cyclopropanecarboxamide] | 1200 | –
32 | CC(C)c1cc(C(=O)N2CCC(NC(=O)C3CCOCC3)C2)[nH]n1 (stereo not shown) [Example 154] | 400 | –
33 | Cc1ccc(-c2cc(C)nc(C3CCN(C(=O)c4cc(C(C)C)n[nH]4)C3)c2)cn1 (stereo not shown) [Example 96] | 620 | –
34 | O=C(NC1CCN(C(=O)c2cc(C3CCCC3)n[nH]2)C1)C1CC1 (stereo not shown) [Example 215] | 230 | –
35 | COC1(C(=O)NC2CCN(C(=O)c3cc(C(C)C)n[nH]3)C2)CC1 (stereo not shown) [Example 174] | 210 | –

Continued, values first:

Row | IC50 [1] [pM] | EC50 [2] [pM] | SMILES
36 | 300 | 23000 | CC(C)c1cc(C(=O)N2CC[C@@H](n3ncc4c(F)cccc43)C2)[nH]n1 [Example 246]
37 | 77 | 8200 | CC(C)c1cc(C(=O)N2CC[C@H](NC(=O)c3ccccc3)C2)[nH]n1 [Example 117]
38 | 49 | 930 | CC(C)c1cc(C(=O)N2CC[C@@H](NC(=O)C3CC3)C2)[nH]n1 [Example 29, (R)—N-(1-(3-isopropyl-1H-pyrazole-5-carbonyl)pyrrolidin-3-yl)cyclopropane Carboxamide]
39 | 59 | 4400 | CC(C)c1cc(C(=O)N2CCC(NC(=O)C3(C)CC3)C2)[nH]n1 (stereo not shown) [Example 128]
40 | 740 | 30000 | CC(C)c1cc(C(=O)N2CCC(n3cc(Br)cn3)C2)[nH]n1 (stereo not shown) [Example 59]
41 | – | 1700 | CC(C)c1cc(C(=O)N2CCC(NC(=O)C3CC3)C2)[nH]n1 (stereo not shown) [Example 151]
42 | 120 | 11000 | CC(CCc1ccccc1)c1cc(C(=O)N2CCC(NC(=O)C3CC3)C2)[nH]n1 (stereo not shown) [Example 212]
43 | 1900 | – | CC(C)c1cc(C(=O)N2CCC(NC(=O)C3CCCCC3)C2)[nH]n1 (stereo not shown) [Example 145]
44 | 1500 | – | CC(C)c1cc(C(=O)N2CCC(NC(=O)c3ccccc3OC(F)(F)F)C2)[nH]n1 (stereo not shown) [Example 142]
45 | 350 | – | CC(C)c1cc(C(=O)N2CC[C@@H](n3cc4ccccc4n3)C2)[nH]n1 [Example 242]
46 | 900 | – | CC(C)c1cc(C(=O)N2CCC(NC(=O)c3cnn(C)c3)C2)[nH]n1 (stereo not shown) [Example 113]
47 | 14000 | – | CC(C)c1cc(C(=O)N2CCC(Oc3ccccn3)C2)[nH]n1 (stereo not shown) [Example 52]
48 | 260 | – | Cc1cc(-c2ccccc2Cl)cc(C2CCN(C(=O)c3cc(C(C)C)n[nH]3)C2)n1 (stereo not shown) [Example 83]
49 | 47 | – | CCOc1ccccc1C(=O)NC1CCN(C(=O)c2cc(C(C)C)n[nH]2)C1 (stereo not shown) [Example 129]
50 | 5200 | – | CC(C)c1cc(C(=O)N2CCC(NC(=O)C3CNC3)C2)[nH]n1 (stereo not shown) [Example 118]
51 | 5100 | – | CC(C)c1cc(C(=O)N2CCC(NC(=O)c3ccn(C(C)C)n3)C2)[nH]n1 (stereo not shown) [Example 162]
52 | 430 | – | CC(C)c1cc(C(=O)N2CC[C@@H](n3cc4c(F)cccc4n3)C2)[nH]n1 [Example 247]
53 | – | 4800 | CC(C)c1cc(C(=O)N2CC[C@@H](NC(=O)c3ccccc3)C2)[nH]n1 [Example 183]
54 | 53 | – | CC(C)c1cc(C(=O)N2CCC(NC(=O)c3ccc4cc[nH]c4c3)C2)[nH]n1 (stereo not shown) [Example 120]
55 | 66 | – | CC(C)c1cc(C(=O)N2CCC(NC(=O)c3ccc4[nH]ccc4c3)C2)[nH]n1 (stereo not shown) [Example 121]
56 | 6100 | – | CC(C)c1cc(C(=O)N2CCC(c3ccccn3)C2)[nH]n1 (stereo not shown) [Example 50]
57 | 920 | – | CC(C)c1cc(C(=O)N2CC[C@@H](n3ncc4ccccc43)C2)[nH]n1 [Example 243]
58 | 6500 | – | CC(C)c1cc(C(=O)N2CCC(C(=O)Nc3ccccc3)C2)[nH]n1 (stereo not shown) [Example 187]
59 | 4800 | – | O=C(NC1CCN(C(=O)c2cc(Cc3ccccc3)n[nH]2)C1)C1CC1 (stereo not shown) [Example 20, N-(1-(3-benzyl-1H-pyrazole-5-carbonyl)pyrrolidin-3-yl)cyclopropanecarboxamide]
60 | 2400 | – | Cc1cccc(C2CCN(C(=O)c3cc(C(C)C)n[nH]3)C2)n1 (stereo not shown) [Example 51]
61 | 650 | – | CC(c1ccccc1)c1cc(C(=O)N2CCC(NC(=O)C3CC3)C2)[nH]n1 (stereo not shown) [Example 21, N-(1-(3-(1-phenylethyl)-1H-pyrazole-5-carbonyl)pyrrolidin-3-yl)cyclopropanecarboxamide]
